ChEMBL document CHEMBL1132317, “Solution structure of iron(III)-anthracycline complexes” (J Med Chem, 1999)

Test system: K562
Assay: Cytotoxic activity against K562 erythroleukemic cells
Assay type: functional, cell-based
Conditions: Homo sapiens

**Q.** With `CC(=O)[C@]1(O)Cc2c(O)c3c(c(O)c2[C@@H](O[C@H]2C[C@H](N)[C@H](O)[C@H](C)O2)C1)C(=O)c1ccccc1C3=O` [IDARUBICIN] as the compound, how does the IC50 read?
**A.** 2 nM
